Data reported in US20230203021A1, “GLP-1 RECEPTOR AGONIST, PHARMACEUTICAL COMPOSITION COMPRISING SAME, AND METHOD FOR PREPARING SAME” (LG CHEM, LTD., priority 2020, published 2023).

Molecular target: T1, hGLP-1R (Homo sapiens, UniProt P43220)
T1 construct: expressed in transfected cells; host or cells: CHO-K1
Assay: Measurement of activity of GLP-1R agonist (cell-based luciferase assay), CHO-K1/hGLP-1R/CRE-luciferase cell line
Conditions: GLP-1R activity; CHO-K1/hGLP-1R/CRE-luciferase cells, 9 concentrations, four hours of incubation, Bright-Glo luminescence
Procedure: 15,000 cells of a CHO-K1/hGLP-1R/CRE-luciferase cell line were seeded in a 96-well plate. A medium used herein was Ham’s F-12 Nutrient medium. The cells were incubated for 18 hours in a 5% CO2 incubator which was maintained at 37° C., and then treated with drugs. Each drug dispensed at 9 different concentrations was dissolved in a DMEM/F-12 + 1% FBS medium, and the cell line was treated with each of 100 µl thereof. After four hours of incubation, a Bright-Glo® luciferase assay system kit was used to add 30 µl of an assay reagent per well. A plate was stored at room temperature for 15 minutes, and then luminescence was measured using a SpectraMax M5 reader.

T1 sequence (P43220 24-463): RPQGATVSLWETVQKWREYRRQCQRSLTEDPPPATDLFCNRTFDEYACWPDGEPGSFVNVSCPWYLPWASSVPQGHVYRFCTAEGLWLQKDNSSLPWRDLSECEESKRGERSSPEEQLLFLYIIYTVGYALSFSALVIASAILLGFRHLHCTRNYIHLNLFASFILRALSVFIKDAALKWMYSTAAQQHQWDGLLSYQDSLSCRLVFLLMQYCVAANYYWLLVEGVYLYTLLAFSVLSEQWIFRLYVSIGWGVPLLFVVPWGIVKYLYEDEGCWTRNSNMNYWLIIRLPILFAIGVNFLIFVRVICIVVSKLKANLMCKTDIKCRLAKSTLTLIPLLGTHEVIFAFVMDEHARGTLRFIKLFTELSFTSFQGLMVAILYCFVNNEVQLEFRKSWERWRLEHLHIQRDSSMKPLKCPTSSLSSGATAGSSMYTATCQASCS

| EC50 | SMILES |
| --- | --- |
| 1.33 nM | O=C(O)c1ccc2nc(Oc3c(F)cc(-c4cccc(OCc5ccc(Cl)cc5F)n4)cc3F)n(C[C@@H]3CCO3)c2c1 [Example 19, (S)-2-(4-(6-((4-chloro-2-fluorobenzyl)oxy)pyridin-2-yl)-2,6-difluorophenoxy)-1-(oxetan-2-ylmethyl)-1H-benzo[d]imidazole-6-carboxylic acid] |
| 0.7 nM | N#Cc1ccc(COc2cccc(-c3ccc(Oc4nc5ccc(C(=O)O)cc5n4Cc4cnco4)cc3)n2)c(F)c1 [Example 9, 2-(4-(6-((4-cyano-2-fluorobenzyl)oxy)pyridin-2-yl)phenoxy)-1-(oxazol-5-ylmethyl)-1H-benzo[d]imidazole-6-carboxylic acid] |
| 2.09 nM | O=C(O)c1ccc2nc(Cc3ccc(-c4cccc(OCc5ccc(C(F)(F)F)cc5F)n4)cc3)n(C[C@@H]3CCOC3)c2c1 [Example 36, (S)-2-(4-(6-((2-fluoro-4-(trifluoromethyl)benzyl)oxy)pyridin-2-yl)benzyl)-1-((tetrahydrofuran-3-yl)methyl)-1H-benzo[d]imidazole-6-carboxylic acid] |
| 2.02 nM | O=C(O)c1ccc2nc(Cc3ccc(-c4cccc(OCc5ccc(Cl)cc5F)n4)cc3)n(C[C@H]3CCCO3)c2c1 [Example 13, (R)-2-(4-(6-((4-chloro-2-fluorobenzyl)oxy)pyridin-2-yl)benzyl)-1-((tetrahydrofuran-2-yl)methyl)-1H-benzo[d]imidazole-6-carboxylic acid] |
| > 80 nM | O=C(O)c1ccc2nc(Cc3ccc(-c4cccc(OCc5ccc(Cl)cc5F)n4)cc3)n(CC3CCCCO3)c2c1 (stereo not drawn) [Example 14, 2-(4-(6-((4-chloro-2-fluorobenzyl)oxy)pyridin-2-yl)benzyl)-1-((tetrahydro-2H-pyran-2-yl)methyl)-1H-benzo[d]imidazole-6-carboxylic acid] |
| 0.208 nM | O=C(O)c1ccc2nc(Cc3ccc(-c4cccc(OCc5ccc(C(F)(F)F)cc5F)n4)cc3)n(C[C@@H]3CCCO3)c2c1 [Example 29, (S)-2-(4-(6-((2-fluoro-4-(trifluoromethyl)benzyl)oxy)pyridin-2-yl)benzyl)-1-((tetrahydrofuran-2-yl)methyl)-1H-benzo[d]imidazole-6-carboxylic acid] |
| 0.087 nM | O=C(O)c1ccc2nc(Cc3ccc(-c4cccc(OCc5ccc(Cl)cc5F)n4)c(Cl)c3)n(C[C@@H]3CCCO3)c2c1 [Example 34, (S)-2-(3-chloro-4-(6-((4-chloro-2-fluorobenzyl)oxy)pyridin-2-yl)benzyl)-1-((tetrahydrofuran-2-yl)methyl)-1H-benzo[d]imidazole-6-carboxylic acid] |
| 0.066 nM | O=C(O)c1ccc2nc(Oc3ccc(-c4cccc(OCc5ccc(Cl)cc5F)n4)cc3)n(C[C@@H]3CCO3)c2c1 [Example 7, (S)-2-(4-(6-((4-chloro-2-fluorobenzyl)oxy)pyridin-2-yl)phenoxy)-1-(oxetan-2-ylmethyl)-1H-benzo[d]imidazole-6-carboxylic acid] |
| > 80 nM | O=C(O)c1ccc2nc(Cc3ccc(-c4cccc(OCc5ccc(C(F)(F)F)cc5F)n4)cc3)n(C[C@@H]3CCO3)c2c1 [Example 16, (S)-2-(4-(6-((2-fluoro-4-(trifluoromethyl)benzyl)oxy)pyridin-2-yl)benzyl)-1-(oxetan-2-ylmethyl)-1H-benzo[d]imidazole-6-carboxylic acid] |
| 0.317 nM | O=C(O)c1ccc2nc(Cc3ccc(-c4cccc(OCc5ccc(C(F)(F)F)cc5F)n4)cc3)n(Cc3cnco3)c2c1 [Example 21, 2-(4-(6-((2-fluoro-4-(trifluoromethyl)benzyl)oxy)pyridin-2-yl)benzyl)-1-(oxazol-5-ylmethyl)-1H-benzo[d]imidazole-6-carboxylic acid] |
| 1.12 nM | O=C(O)c1ccc2nc(Oc3ccc(-c4cccc(OCc5ccc(Cl)cc5F)n4)cc3)n(CC3CCCO3)c2c1 (stereo not drawn) [Example 28, 2-(4-(6-((4-chloro-2-fluorobenzyl)oxy)pyridin-2-yl)phenoxy)-1-((tetrahydrofuran-2-yl)methyl)-1H-benzo[d]imidazole-6-carboxylic acid] |
| 21 nM | N#Cc1ccc(COc2cccc(-c3ccc(Oc4nc5ccc(C(=O)O)cc5n4C[C@@H]4CCO4)cc3)n2)c(F)c1 [Example 6, (S)-2-(4-(6-((4-cyano-2-fluorobenzyl)oxy)pyridin-2-yl)phenoxy)-1-(oxetan-2-ylmethyl)-1H-benzo[d]imidazole-6-carboxylic acid] |
| 0.121 nM | O=C(O)c1ccc2nc(Oc3ccc(-c4cccc(OCc5ccc(Cl)cc5F)n4)c(F)c3)n(C[C@@H]3CCO3)c2c1 [Example 20, (S)-2-(4-(6-((4-chloro-2-fluorobenzyl)oxy)pyridin-2-yl)-3-fluorophenoxy)-1-(oxetan-2-ylmethyl)-1H-benzo[d]imidazole-6-carboxylic acid] |
| 0.775 nM | CCCn1cnnc1Cn1c(Cc2ccc(-c3cccc(OCc4ccc(Cl)cc4F)n3)c(Cl)c2)nc2ccc(C(=O)O)cc21 [Example 26, 2-(3-chloro-4-(6-((4-chloro-2-fluorobenzyl)oxy)pyridin-2-yl)benzyl)-1-((4-propyl-4H-1,2,4-triazol-3-yl)methyl)-1H-benzo[d]imidazole-6-carboxylic acid] |
| 0.438 nM | O=C(O)c1ccc2nc(Oc3ccc(-c4cccc(OCc5ccc(Cl)cc5F)n4)cc3Cl)n(C[C@@H]3CCO3)c2c1 [Example 18, (S)-2-(2-chloro-4-(6-((4-chloro-2-fluorobenzyl)oxy)pyridin-2-yl)phenoxy)-1-(oxetan-2-ylmethyl)-1H-benzo[d]imidazol-6-carboxylic acid] |
| 0.0746 nM | O=C(O)c1ccc2nc(Cc3ccc(-c4cccc(OCc5ccc(Cl)cc5F)n4)cc3F)n(Cc3cnco3)c2c1 [Example 11, 2-(4-(6-((4-chloro-2-fluorobenzyl)oxy)pyridin-2-yl)-2-fluorobenzyl)-1-(oxazol-5-ylmethyl)-1H-benzo[d]imidazole-6-carboxylic acid] |
| 0.016 nM | CCn1cncc1Cn1c(Oc2ccc(-c3cccc(OCc4ccc(C#N)cc4F)n3)cc2)nc2ccc(C(=O)O)cc21 [Example 5, 2-(4-(6-((4-cyano-2-fluorobenzyl)oxy)pyridin-2-yl)phenoxy)-1-((1-ethyl-1H-imidazol-5-yl)methyl)-1H-benzo[d]imidazole-6-carboxylic acid] |
| 0.0706 nM | O=C(O)c1ccc2nc(Cc3ccc(-c4cccc(OCc5ccc(Cl)cc5F)n4)cc3)n(C[C@@H]3CCCO3)c2c1 [Example 12, (S)-2-(4-(6-((4-chloro-2-fluorobenzyl)oxy)pyridin-2-yl)benzyl)-1-((tetrahydrofuran-2-yl)methyl)-1H-benzo[d]imidazole-6-carboxylic acid] |
| 0.635 nM | O=C(O)c1ccc2nc(Cc3ccc(-c4cccc(OCc5ccc(Cl)cc5F)n4)c(Cl)c3)n(Cc3cnco3)c2c1 [Example 22, 2-(3-chloro-4-(6-((4-chloro-2-fluorobenzyl)oxy)pyridin-2-yl)benzyl)-1-(oxazol-5-ylmethyl)-1H-benzo[d]imidazole-6-carboxylic acid] |
| 0.061 nM | O=C(O)c1ccc2nc(Cc3ccc(-c4cccc(OCc5ccc(Cl)cc5F)n4)c(F)c3)n(Cc3cnco3)c2c1 [Example 23, 2-(4-(6-((4-chloro-2-fluorobenzyl)oxy)pyridin-2-yl)-3-fluorobenzyl)-1-(oxazol-5-ylmethyl)-1H-benzo[d]imidazole-6-carboxylic acid] |
| 0.0035 nM | O=C(O)c1ccc2nc(Cc3ccc(-c4cccc(OCc5ccc(Cl)cc5F)n4)c(F)c3)n(C[C@@H]3CCO3)c2c1 [Example 15, (S)-2-(4-(6-((4-chloro-2-fluorobenzyl)oxy)pyridin-2-yl)-3-fluorobenzyl)-1-(oxetan-2-ylmethyl)-1H-benzo[d]imidazole-6-carboxylic acid] |
| > 80 nM | O=C(O)c1ccc2nc(Oc3ccc(-c4cccc(OCc5ccc(Cl)cc5F)n4)cc3F)n(C[C@@H]3CCCO3)c2c1 [Example 31, (S)-2-(4-(6-((4-chloro-2-fluorobenzyl)oxy)pyridin-2-yl)-2-fluorophenoxy)-1-((tetrahydrofuran-2-yl)methyl)-1H-benzo[d]imidazole-6-carboxylic acid] |
| 0.0327 nM | O=C(O)c1ccc2nc(Cc3ccc(-c4cccc(OCc5ccc(Cl)cc5F)n4)cc3F)n(C[C@@H]3CCCO3)c2c1 [Example 30, (S)-2-(4-(6-((4-chloro-2-fluorobenzyl)oxy)pyridin-2-yl)-2-fluorobenzyl)-1-((tetrahydrofuran-2-yl)methyl)-1H-benzo[d]imidazole-6-carboxylic acid] |
| 0.402 nM | CCCn1cnnc1Cn1c(Cc2ccc(-c3cccc(OCc4ccc(C(F)(F)F)cc4F)n3)cc2)nc2ccc(C(=O)O)cc21 [Example 25, 2-(4-(6-((2-fluoro-4-(trifluoromethyl)benzyl)oxy)pyridin-2-yl)benzyl)-1-((4-propyl-4H-1,2,4-triazol-3-yl)methyl)-1H-benzo[d]imidazole-6-carboxylic acid] |
| 0.365 nM | O=C(O)c1ccc2nc(Cc3ccc(-c4cccc(OCc5ccc(Cl)cc5F)n4)cc3)n(C[C@H]3CCOC3)c2c1 [Example 33, (R)-2-(4-(6-((4-chloro-2-fluorobenzyl)oxy)pyridin-2-yl)benzyl)-1-((tetrahydrofuran-3-yl)methyl)-1H-benzo[d]imidazole-6-carboxylic acid] |
| 0.015 nM | CCn1cncc1Cn1c(Cc2ccc(-c3cccc(OCc4ccc(C#N)cc4F)n3)cc2)nc2ccc(C(=O)O)cc21 [Example 4, 2-(4-(6-((4-cyano-2-fluorobenzyl)oxy)pyridin-2-yl)benzyl)-1-((1-ethyl-1H-imidazol-5-yl)methyl)-1H-benzo[d]imidazole-6-carboxylic acid] |
| 3.43 nM | O=C(O)c1ccc2nc(Oc3ccc(-c4cccc(OCc5ccc(Cl)cc5F)n4)cc3Cl)n(C[C@@H]3CCCO3)c2c1 [Example 32, (S)-2-(2-chloro-4-(6-((4-chloro-2-fluorobenzyl)oxy)pyridin-2-yl)phenoxy)-1-((tetrahydrofuran-2-yl)methyl)-1H-benzo[d]imidazole-6-carboxylic acid] |
